Measurements reported in patent publication US10729815B2, “Combined treatment for nerve injuries” (Ramot at Tel-Aviv University Ltd., priority 2016, dated 2020).

B1: ACE human recombinant: Angiotensin Converting Enzyme Human recombinant (Biotest 929-ZN) (protein, UniProt P12821 30-1306, looked up)
Angiotensin-converting enzyme: LDPGLQPGNFSADEAGAQLFAQSYNSSAEQVLFQSVAASWAHDTNITAENARRQEEAALLSQEFAEAWGQKAKELYEPIWQNFTDPQLRRIIGAVRTLGSANLPLAKRQQYNALLSNMSRIYSTAKVCLPNKTATCWSLDPDLTNILASSRSYAMLLFAWEGWHNAAGIPLKPLYEDFTALSNEAYKQDGFTDTGAYWRSWYNSPTFEDDLEHLYQQLEPLYLNLHAFVRRALHRRYGDRYINLRGPIPAHLLGDMWAQSWENIYDMVVPFPDKPNLDVTSTMLQQGWNATHMFRVAEEFFTSLELSPMPPEFWEGSMLEKPADGREVVCHASAWDFYNRKDFRIKQCTRVTMDQLSTVHHEMGHIQYYLQYKDLPVSLRRGANPGFHEAIGDVLALSVSTPEHLHKIGLLDRVTNDTESDINYLLKMALEKIAFLPFGYLVDQWRWGVFSGRTPPSRYNFDWWYLRTKYQGICPPVTRNETHFDAGAKFHVPNVTPYIRYFVSFVLQFQFHEALCKEAGYEGPLHQCDIYRSTKAGAKLRKVLQAGSSRPWQEVLKDMVGLDALDAQPLLKYFQPVTQWLQEQNQQNGEVLGWPEYQWHPPLPDNYPEGIDLVTDEAEASKFVEEYDRTSQVVWNEYAEANWNYNTNITTETSKILLQKNMQIANHTLKYGTQARKFDVNQLQNTTIKRIIKKVQDLERAALPAQELEEYNKILLDMETTYSVATVCHPNGSCLQLEPDLTNVMATSRKYEDLLWAWEGWRDKAGRAILQFYPKYVELINQAARLNGYVDAGDSWRSMYETPSLEQDLERLFQELQPLYLNLHAYVRRALHRHYGAQHINLEGPIPAHLLGNMWAQTWSNIYDLVVPFPSAPSMDTTEAMLKQGWTPRRMFKEADDFFTSLGLLPVPPEFWNKSMLEKPTDGREVVCHASAWDFYNGKDFRIKQCTTVNLEDLVVAHHEMGHIQYFMQYKDLPVALREGANPGFHEAIGDVLALSVSTPKHLHSLNLLSSEGGSDEHDINFLMKMALDKIAFIPFSYLVDQWRWRVFDGSITKENYNQEWWSLRLKYQGLCPPVPRTQGDFDPGAKFHIPSSVPYIRYFVSFIIQFQFHEALCQAAGHTGPLHKCDIYQSKEAGQRLATAMKLGFSRPWPEAMQLITGQPNMSASAMLSYFKPLLDWLRTENELHGEKLGWPQYNWTPNSARSEGPLPDSGRVSFLGLDLDAQQARVGQWLLLFLGIALLVATLGLSQRLFSIRHRSLHRHSHGPQFGSEVELRHS

Key:
[1] = tested on: astrocytes cultures of human brain cells, derived from astrocytoma, U-87 MG; test: In-vitro effect of anti-gliotic agents on astrocytes survival (cell counting); format: cell-based; conditions: 48 h
Procedure: (§1) Cell culture—Astrocytes cultures of human brain cells, derived from astrocytoma, U-87 MG (ATCC® HTB-14™, American Type Culture Collection, Rockville, Md., USA) were cultured in growth medium [10% Fetal Bovine Serum (FBS) and 1% Penicillin-Streptomycin solution (PS) in Minimum Essential Medium (MEM)]. […] The cell suspension (5×10^5 cells/well) was seeded into a 6-well plate (500 μl/well) containing 1.5 ml/well of assay medium, incubated for 24±1 hours at […], 5% CO2, and then examined microscopically. Following, at 90% cell confluence, the plates were treated according to the following groups:
(§2) The anti-gliotic agents were added as follows: Chondroitinase ABC (0.2 U/ml), Collagenase (2 mg, 50 μl), β-D-Xyloside (2.5 mM, 20 μl), MMPs-3 (0.5 μg, 20 μl), Anti TGFβ 1,2&3 (10 μg, 20 μl), Mitomycin C (50 μg, 25 μl), ACE human recombinant (0.5 μg, 25 μl) and Anti-Nogo A (5 U, 25 μl).

[2] = tested on: astrocytes cultures of human brain cells, derived from astrocytoma, U-87 MG; test: In-vitro effect of anti-gliotic agents on 35S-GAG accumulation in activated astrocytes; format: cell-based; conditions: 48 h
Procedure: as §1, §2
Astrocytes activation causes glycosaminoglycans (GAGs) accumulation in cultures, both intracellularly, pericellularly and extracellularly. Therefore, GAGs can serve as a tracer for either formation or elimination of the scar barrier.

[3] = astrocytes activated with Bt2-cAMP 1 mM + theophylline 0.25 mM plus the anti-gliotic agent
[4] = activated with Bt2-cAMP + theophylline plus anti-gliotic agent
[5] = activated with Bt2-cAMP + theophylline plus anti-gliotic agent, values multiplied 6 times (normalized to vital cell survivors)

| Molecule | % of cells (cell percentage in astrocyte cultures relative to untreated cultures) [1, 3] | % of Isolated 35S-GAGs (relative to the theophylline control) [2, 4] | Isolated 35S-GAGs Average + SD [2, 5] | % of cells (cell percentage in astrocyte cultures relative to untreated cultures) ([1]; activator(s) only, no anti-gliotic agent, Bt2-cAMP 1 mM, theophylline 0.25 mM) | Isolated 35S-GAGs Average + SD ([2]; activator(s) only, theophylline well multiplied 6 times (normalized to vital cell survivors)) |
| --- | --- | --- | --- | --- | --- |
| MMPs-3: MMP-3-Matrix Metalloproteinase, human Stromlysin STR1 (Sigma SRP 7783) | 23.2% | 82.3% | 63,941 + 11,374 |  |  |
| CCCC(=O)Nc1ncnc2c1ncn2[C@@H]1O[C@@H]2COP(=O)([O-])O[C@H]2[C@H]1OC(=O)CCC.[Na+] [Bt2-cAMP, N6,2′-O-Dibutyryladenosine 3′,5′-cyclic monophosphate, sodium salt, reference compound] |  |  |  | 32.8% | 34,872 + 2,946 |
| Collagenase | 39.1% | 66.1% | 51,371 + 10,556 |  |  |
| O=[N+]([O-])c1ccc(O[C@@H]2OC[C@@H](O)[C@H](O)[C@H]2O)cc1 [β-D-Xyloside, 4-Nitrophenyl β-D-xylopyranoside, reference compound] | 54.7% | 78.5% | 61,016 + 21,506 |  |  |
| Chondroitinase ABC | 33.1% | 5.5% | 4,299 + 939 |  |  |
| B1 | 70.4% | 22.9% | 17,814 + 2,201 |  |  |
